Data: patent US8648201B2, “Aminopyridine derivatives for treating tumors and inflammatory diseases” (MERCK PATENT GmbH, priority 2009, dated 2014)

Key:
PDK1 = target: T1, PDK1 (Homo sapiens, UniProt O15530); assay: Test for the inhibition of PDK1 (flashplate, 33P-ATP); type: biochemical; settings: enzyme
T1 construct: His6 (N)
T1 sequence (O15530 51-556 limits assumed): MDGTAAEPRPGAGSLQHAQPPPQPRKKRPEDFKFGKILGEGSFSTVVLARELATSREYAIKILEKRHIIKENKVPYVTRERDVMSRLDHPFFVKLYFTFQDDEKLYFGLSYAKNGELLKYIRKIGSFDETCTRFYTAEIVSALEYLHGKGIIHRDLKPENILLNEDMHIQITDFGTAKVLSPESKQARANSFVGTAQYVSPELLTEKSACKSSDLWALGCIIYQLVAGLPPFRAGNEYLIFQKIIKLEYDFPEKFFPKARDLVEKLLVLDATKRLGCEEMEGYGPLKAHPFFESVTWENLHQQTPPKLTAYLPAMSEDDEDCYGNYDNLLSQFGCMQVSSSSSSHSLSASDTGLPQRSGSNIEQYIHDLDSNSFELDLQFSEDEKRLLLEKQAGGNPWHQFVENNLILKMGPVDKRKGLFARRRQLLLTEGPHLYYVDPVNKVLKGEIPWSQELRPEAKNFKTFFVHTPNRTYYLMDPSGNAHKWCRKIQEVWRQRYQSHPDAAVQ
In short: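 His6-PDK1(1-50) (3.4 nM) incubated with biotinylated peptide substrate (400 nM), 4 μM ATP plus 33P-ATP and compound, 60 min at 30 °C. Incorporated radioactivity counted; blank with 100 nM staurosporine subtracted, activity as % of compound-free control. IC50 from dose series.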

IRAK-4 = target: T2, IRAK-4 (Homo sapiens, UniProt Q9NWZ3); assay: IC50 IRAK-4 (cell); type: cell-based
T2 construct: His6 (N); Dr.Jaekel
T2 sequence (Q9NWZ3 1-460): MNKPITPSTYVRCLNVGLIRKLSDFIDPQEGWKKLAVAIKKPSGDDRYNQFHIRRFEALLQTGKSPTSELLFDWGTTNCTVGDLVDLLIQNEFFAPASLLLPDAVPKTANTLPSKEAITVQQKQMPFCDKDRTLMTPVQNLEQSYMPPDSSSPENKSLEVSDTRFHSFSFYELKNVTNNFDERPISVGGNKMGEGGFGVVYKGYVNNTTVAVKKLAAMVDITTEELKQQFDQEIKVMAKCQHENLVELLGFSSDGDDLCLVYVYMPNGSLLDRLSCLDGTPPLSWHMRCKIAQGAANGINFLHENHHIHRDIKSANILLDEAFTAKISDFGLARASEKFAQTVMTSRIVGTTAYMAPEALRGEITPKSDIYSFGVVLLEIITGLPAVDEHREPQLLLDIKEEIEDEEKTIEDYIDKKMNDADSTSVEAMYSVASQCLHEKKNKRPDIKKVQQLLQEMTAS

Compound | IC50 (PDK1) | IC50 (IRAK-4)
Cn1cc(-c2cnc(N)c(-c3nc4cccc(CO)c4[nH]3)c2)cn1 [Compound A52] | 1 to 100 nM | –
COc1ccc2nc(-c3cc(-c4cnn(C5CCNCC5)c4)cnc3N)[nH]c2c1 [Compound A92, 3-(6-Methoxy-1H-benzimidazol-2-yl)-5-(1-piperidin-4-yl-1H-pyrazol-4-yl)pyridin-2-ylamine] | 1 to 100 nM | 100 to 10000 nM
COc1ccc2nc(-c3cc(-c4ccsc4)cnc3N)[nH]c2c1 [Compound A144, 3-(6-methoxy-1H-benzimidazol-2-yl)-5-thiophen-3-ylpyridin-2-ylamine] | 1 to 100 nM | –
Cn1cc(-c2cnc(N)c(-c3nc4ccc(C(=O)NCCc5ccc(F)c(F)c5)cc4[nH]3)c2)cn1 [Compound A128, N-[2-(3,4-difluorophenyl)ethyl]-2-[2-amino-5-(1-methyl-1H-pyrazol-4-yl)pyridin-3-yl]-3H-benzimidazole-5-carboxamide] | 1 to 100 nM | –
CC1CC(=O)NN=C1c1ccc2nc(-c3cc(-c4cnn(C)c4)cnc3N)[nH]c2c1 (racemic) [Compound A1, 6-{2-[2-amino-5-(1-methyl-1H-pyrazol-4-yl)pyridin-3-yl]-3H-benzimidazol-5-yl}-5-methyl-4,5-dihydro-2H-pyridazin-3-one] | 1 to 100 nM | –
COc1ccc2nc(-c3cc(-c4cnn(C)c4)cnc3N)[nH]c2c1 [Compound A43] | 1 to 100 nM | –
COc1ccc2nc(-c3cc(-c4ccc(C(=O)NC5CCN(C)CC5)s4)cnc3N)[nH]c2c1 [Compound A133, N-(1-Methylpiperidin-4-yl)-5-[6-amino-5-(6-methoxy-1H-benzimidazol-2-yl)pyridin-3-yl]thiophene-2-carboxamide] | 1 to 100 nM | –
